In patent US20260274833A1 (NiKang Therapeutics, Inc., priority 2022, published 2026):

molecular target: T1, CDK2 (Homo sapiens, UniProt P24941); assay: Phospho-RB measurement in OVCAR3 cells (HTRF phospho-RB cellular kit); assay type: cell-based; conditions: inhibition of RB phosphorylation at S807/811 (HTRF, TR-FRET ratio 665/620), 24 h compound treatment, 0.3 to 10,000 nM
T1 construct: endogenous in cells; host or cells: OVCAR3 cells
Procedure: Biological Example 1: Phospho-RB Measurement in OVCAR3 Cells
The ability of compounds of Formula (I) to inhibit CDK2 was determined in OVCAR3 cells by measuring inhibition of phosphorylation of RB protein at S780 and S807/811. Phosphorylation of RB protein at S807/811 were measured using HTRF phospho-RB cellular kits (Cat #64RBS807PEG) from Cisbio.
On Day 1, OVCAR3 cells were seeded into 96-well tissue-culture treated plates at 20,000 cells/well in 200 μL and incubated overnight at 37° C. in CO2 atmosphere. On Day 2, the cells were treated with test compounds at concentrations from 0.3 to 10,000 nM using HP D300 digital dispenser. Twenty-four hours after compound treatment, cell culture media was removed by flicking the plate and tapping the plate against clean paper towel. Immediately 30 μL 1× lysis buffer was supplemented from the kit and the plate was incubated at room temperature on shaker for 30 min. After homogenization by pipetting up and down, 8 μL cell lysate from 96-well cell culture plate was transferred to 384-well small volume white detection plate. 2 μL premixed detection solution was added and the plate was covered with sealer. To prepare the detection solution, d2 conjugated-phospho-RB antibody and Eu-cryptate conjugated phosphor-RB antibody were diluted into detection buffer following manufacturer's instruction.
Detection plates were incubated for 4 h at room temperature and read on ClarioStar (BMG Labtech) in TR-FRET mode ([…]). The TR-FRET ratio (665 nM/620 nM) was plotted against the compound concentration and normalized to DMSO controls. Half maximal inhibition concentration (IC50) values are calculated with a four-parameter logistic fit using GraphPad Prism (version 8; La Jolla, CA).

Row | IC50 | Compound
1 | 192 nM | O=S1(=O)CC2(CC(Nc3nccc(-c4sc(N5C6CCC5CN(CC(F)(F)F)C6)nc4-c4cccc(NS(=O)(=O)N5Cc6cccc(C(F)(F)F)c6C5)c4F)n3)C2)C1 [Example 40, N-(3-(5-(2-((2,2-dioxido-2-thiaspiro-[3.3]-heptan-6-yl)amino)pyrimidin-4-yl)-2-(3-(2,2,2-trifluoroethyl)-3,8-diazabicyclo[3.2.1]-octan-8-yl)thiazol-4-yl)-2-fluorophenyl)-4-(trifluoromethyl)-isoindoline-2-sulfonamide]
2 | 278 nM | O=S1(=O)CC2(CC(Nc3nccc(-c4sc(C56CC(C5)C6)nc4-c4cccc(NS(=O)(=O)N5CCc6c5cccc6C(F)(F)F)c4F)n3)C2)C1 [Example 42, N-(3-(2-(bicyclo [1.1.1]pentan-1-yl)-5-(2-((2,2-dioxido-2-thiaspiro[3.3]heptan-6-yl)amino)-pyrimidin-4-yl)thiazol-4-yl)-2-fluorophenyl)-4-(trifluoromethyl)-indoline-1-sulfonamide]
3 | 27.1 nM | CN1CC2CCC(C1)N2c1nc(-c2cccc(NS(=O)(=O)N3CCc4ccc(Cl)cc43)c2F)c(-c2ccnc(NC3CC4(C3)CS(=O)(=O)C4)n2)s1 [Example 43, 6-chloro-N-(3-(5-(2-((2,2-dioxido-2-thiaspiro[3.3]heptan-6-yl)amino)-pyrimidin-4-yl)-2-(3-methyl-3,8-diazabicyclo [3.2.1]octan-8-yl)thiazol-4-yl)-2-fluorophenyl) indoline-1-sulfonamide]
4 | 56 nM | CN1CC2CCC(C1)N2c1nc(-c2cccc(NS(=O)(=O)N3CCc4ccc(C(F)(F)F)cc43)c2F)c(-c2ccnc(NC3CC4(C3)CS(=O)(=O)C4)n2)s1 [Example 44, N-(3-(5-(2-((2,2-dioxido-2-thiaspiro-[3.3]heptan-6-yl)amino)pyrimidin-4-yl)-2-(3-methyl-3,8-diazabicyclo[3.2.1]-octan-8-yl)thiazol-4-yl)-2-fluorophenyl)-6-(trifluoromethyl) indoline-1-sulfonamide]
5 | 314 nM | O=S1(=O)CC2(CC(Nc3nccc(-c4sc(C56CC(C5)C6)nc4-c4cccc(NS(=O)(=O)N5CCc6c5ccc(F)c6F)c4F)n3)C2)C1 [Example 45, N-(3-(2-(bicyclo [1.1.1]pentan-1-yl)-5-(2-((2,2-dioxido-2-thiaspiro[3.3]heptan-6-yl)amino)-pyrimidin-4-yl)thiazol-4-yl)-2-fluorophenyl)-4,5-difluoroindoline-1-sulfonamide]
6 | 476 nM | O=S1(=O)CC2(CC(Nc3nccc(-c4sc(C56CC(C5)C6)nc4-c4cccc(NS(=O)(=O)N5CCc6ccccc6C5)c4F)n3)C2)C1 [Example 46, N-(3-(2-(bicyclo [1.1.1]pentan-1-yl)-5-(2-((2,2-dioxido-2-thiaspiro[3.3]heptan-6-yl)amino)-pyrimidin-4-yl)thiazol-4-yl)-2-fluorophenyl)-3,4-dihydroisoquinoline-2(1H)-sulfonamide]
7 | 343 nM | O=S1(=O)CC2(CC(Nc3nccc(-c4sc(C56CC(C5)C6)nc4-c4cccc(NS(=O)(=O)N5CCc6cc(Cl)ccc65)c4F)n3)C2)C1 [Example 47, N-(3-(2-(bicyclo [1.1.1]pentan-1-yl)-5-(2-((2,2-dioxido-2-thiaspiro[3.3]heptan-6-yl)amino)-pyrimidin-4-yl)thiazol-4-yl)-2-fluorophenyl)-5-chloroindoline-1-sulfonamide]
8 | 139 nM | O=S1(=O)CC2(CC(Nc3nccc(-c4sc(C56CC(C5)C6)nc4-c4cccc(NS(=O)(=O)N5CCc6ccc(OC(F)F)cc65)c4F)n3)C2)C1 [Example 48, N-(3-(2-(bicyclo [1.1.1]pentan-1-yl)-5-(2-((2,2-dioxido-2-thiaspiro[3.3]heptan-6-yl)amino)-pyrimidin-4-yl)thiazol-4-yl)-2-fluorophenyl)-6-(difluoromethoxy)-indoline-1-sulfonamide]
9 | 137 nM | O=S1(=O)CC2(CC(Nc3nccc(-c4sc(N5C6CCC5CN(CC(F)(F)F)C6)nc4-c4cccc(NS(=O)(=O)N5Cc6cccc(C(F)F)c6C5)c4F)n3)C2)C1 [Example 49]
10 | 228 nM | O=S1(=O)CC2(CC(Nc3nccc(-c4sc(C56CC(C5)C6)nc4-c4cccc(NS(=O)(=O)N5CCCc6ccccc6C5)c4F)n3)C2)C1 [Example 50, N-(3-(2-(bicyclo [1.1.1]pentan-1-yl)-5-(2-((2,2-dioxido-2-thiaspiro[3.3]heptan-6-yl)amino)-pyrimidin-4-yl)thiazol-4-yl)-2-fluorophenyl)-1,3,4,5-tetrahydro-2H-benzo[c]azepine-2-sulfonamide]
11 | 336 nM | O=S1(=O)CC2(CC(Nc3nccc(-c4sc(N5C6CCC5CN(C5CC(F)(F)C5)C6)nc4-c4cccc(NS(=O)(=O)N5CCc6ccc(Cl)cc65)c4F)n3)C2)C1 [Example 51, 6-chloro-N-(3-(2-(3-(3,3-difluoro-cyclobutyl)-3,8-diazabicyclo [3.2.1]octan-8-yl)-5-(2-((2,2-dioxido-2-thiaspiro-[3.3]heptan-6-yl)amino)-pyrimidin-4-yl)thiazol-4-yl)-2-fluorophenyl)-indoline-1-sulfonamide]
12 | 160 nM | O=S1(=O)CC2(CC(Nc3nccc(-c4sc(N5C6CCC5CN(C5CC(F)(F)C5)C6)nc4-c4cccc(NS(=O)(=O)N5Cc6cccc(C(F)F)c6C5)c4F)n3)C2)C1 [Example 52, N-(3-(2-(3-(3,3-difluorocyclobutyl)-3,8-diazabicyclo [3.2.1]octan-8-yl)-5-(2-((2,2-dioxido-2-thiaspiro[3.3]heptan-6-yl)amino)-pyrimidin-4-yl)thiazol-4-yl)-2-fluorophenyl)-4-(difluoromethyl)-isoindoline-2-sulfonamide]
13 | 262 nM | CS(=O)(=O)[C@H]1CC[C@H](Nc2nccc(-c3sc(C45CC(C(F)(F)F)(C4)C5)nc3-c3cccc(NS(=O)(=O)N4CCc5ccccc54)c3F)n2)CC1 [Example 53]
14 | 382 nM | CS(=O)(=O)[C@H]1CC[C@H](Nc2nccc(-c3sc(C45CC(C(F)(F)F)(C4)C5)nc3-c3cccc(NS(=O)(=O)N4CCc5ccc(Cl)cc54)c3F)n2)CC1 [Example 54, 6-chloro-N-(2-fluoro-3-(5-(2-(((1r,4r)-4-(methylsulfonyl)cyclohexyl)amino)pyrimidin-4-yl)-2-(3-(trifluoromethyl)bicyclo-[1.1.1]-pentan-1-yl)thiazol-4-yl)phenyl)-indoline-1-sulfonamide]
15 | 525 nM | CS(=O)(=O)[C@H]1CC[C@H](Nc2nccc(-c3sc(C45CC(C(F)(F)F)(C4)C5)nc3-c3cccc(NS(=O)(=O)N4CCc5ccc(C(F)(F)F)cc54)c3F)n2)CC1 [Example 55, N-(2-fluoro-3-(5-(2-(((1r, 4r)-4-(methylsulfonyl)cyclohexyl)amino)pyrimidin-4-yl)-2-(3-(trifluoromethyl)bicyclo-[1.1.1]-pentan-1-yl)thiazol-4-yl)phenyl)-6-(trifluoromethyl) indoline-1-sulfonamide]
16 | 270 nM | CS(=O)(=O)[C@H]1CC[C@H](Nc2nccc(-c3sc(C45CC(C(F)(F)F)(C4)C5)nc3-c3cccc(NS(=O)(=O)N4CCc5ccc(C#N)cc54)c3F)n2)CC1 [Example 56, 6-cyano-N-(2-fluoro-3-(5-(2-(((1r,4r)-4-(methylsulfonyl)cyclohexyl)amino)-pyrimidin-4-yl)-2-(3-(trifluoromethyl)-bicyclo[1.1.1]-pentan-1-yl)thiazol-4-yl)phenyl)indoline-1-sulfonamide]
